Measured values reported in US7622462B2, “Benzazepine derivatives and uses thereof” (Roche Palo Alto LLC, priority 2006, dated 2009).
pKi: −log10 of the molar value.

What was measured:
Assay type in all cases: binding
[1] = biological target: T1, human dopamine transporter (hDAT) (Homo sapiens, UniProt Q01959); test: Human dopamine transporter scintillation proximity assay, competition with [3H]-Vanoxerine; details: HEK-293 cells expressing recombinant hDAT; [3H]-Vanoxerine (GBR 12909); Cheng-Prusoff
T1 construct: expressed in transfected cells; whole cells plated on Cell-Tak coated 96 well plates
T1 sequence (Q01959 whole entry): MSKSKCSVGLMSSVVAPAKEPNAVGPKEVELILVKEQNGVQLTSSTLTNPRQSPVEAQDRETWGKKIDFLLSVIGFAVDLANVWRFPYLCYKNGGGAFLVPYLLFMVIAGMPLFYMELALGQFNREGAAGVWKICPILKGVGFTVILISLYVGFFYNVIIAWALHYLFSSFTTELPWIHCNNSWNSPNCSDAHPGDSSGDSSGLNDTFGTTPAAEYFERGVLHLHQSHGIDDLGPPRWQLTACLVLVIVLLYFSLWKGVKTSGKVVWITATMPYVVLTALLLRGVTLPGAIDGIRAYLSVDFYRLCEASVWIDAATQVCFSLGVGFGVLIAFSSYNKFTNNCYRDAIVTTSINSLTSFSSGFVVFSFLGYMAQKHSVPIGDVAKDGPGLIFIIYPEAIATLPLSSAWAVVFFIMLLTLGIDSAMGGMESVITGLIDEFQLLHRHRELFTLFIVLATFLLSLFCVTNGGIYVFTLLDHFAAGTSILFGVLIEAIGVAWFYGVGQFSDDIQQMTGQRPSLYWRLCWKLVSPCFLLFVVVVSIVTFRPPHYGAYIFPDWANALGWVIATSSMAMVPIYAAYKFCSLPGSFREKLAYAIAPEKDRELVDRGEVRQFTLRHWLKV
Experimental: This assay was used to determine the affinity of ligands for the dopamine transporter by competition with [^3H]-Vanoxerine.
HEK-293 cells (Tatsumi et al., Eur. J. Pharmacol. 1997, 30, 249-258) stably expressing recombinant hDAT were maintained with media (DMEM hi glucose with 10% FBS, 300 μg/ml G418 and 2 mM L-Glutamine) and incubated at 37° C. with 5% CO2. Cells were plated four hours prior to experiment by placing approximately 30,000 cells per well (in PBS) on white, opaque Cell-Tak coated 96 well plates. Extra buffer was apriated from the cell plates using an ELx405 plate washer.
^3[H] vanoxerine (GBR 12909) radioligand, specific activity approximately 59 Ci/mmol, stock concentration, 400 nM, and 50 mM Tris-HCl, 300 mM NaCl, (pH 7.4) buffers were used for Scintillation Proximity Assay IC50/Ki determination. […]
The % inhibition was calculated for each compound tested [(Compound CPM at maximum concentration-Non-Specific CPM)/Total CPM*100]. […]
(§1) [formula] where max=total binding, min=non specific binding, x=concentration (M) of the tested compound and n=Hill slope. The inhibition dissociation constant (Ki) of each compound was determined according to the method of Cheng-Prusoff and then converted into negative logarithm (pKi) of the Ki.

hNET transporter = biological target: T2, hNET transporter (Homo sapiens, UniProt P23975); test: Human norepinephrine transporter (hNET) scintillation proximity assay, competition with [3H]-Nisoxetine; details: membranes of HEK-293 cells expressing recombinant hNET, Cheng-Prusoff
T2 construct: expressed in transfected cells; membrane preparation
T2 sequence (P23975 whole entry): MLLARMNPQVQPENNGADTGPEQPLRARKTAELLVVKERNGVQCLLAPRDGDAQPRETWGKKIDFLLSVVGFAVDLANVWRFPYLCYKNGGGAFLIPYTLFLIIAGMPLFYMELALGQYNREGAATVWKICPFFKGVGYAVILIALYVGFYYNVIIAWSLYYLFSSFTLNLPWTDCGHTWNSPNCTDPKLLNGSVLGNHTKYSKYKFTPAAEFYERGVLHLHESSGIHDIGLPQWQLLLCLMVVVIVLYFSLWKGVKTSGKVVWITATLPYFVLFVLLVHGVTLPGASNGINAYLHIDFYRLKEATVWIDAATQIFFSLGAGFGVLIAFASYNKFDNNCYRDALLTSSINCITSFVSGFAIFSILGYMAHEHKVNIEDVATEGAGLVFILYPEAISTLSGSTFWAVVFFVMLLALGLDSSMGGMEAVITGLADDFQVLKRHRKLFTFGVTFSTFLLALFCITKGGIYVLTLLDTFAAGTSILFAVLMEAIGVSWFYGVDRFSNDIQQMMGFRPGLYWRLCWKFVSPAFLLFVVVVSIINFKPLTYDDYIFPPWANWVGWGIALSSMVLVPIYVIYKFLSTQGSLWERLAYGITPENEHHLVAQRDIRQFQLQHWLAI
Experimental: This assay was used to determine the affinity of ligands for the hNET transporter by competition with [^3H]-Nisoxetine. As in the hSERT assay of the above example, receptor-containing membranes were pre-coupled to the SPA beads and the binding of the appropriate radioligand to the transporter was measured. The light emission was proportional to the amount of bound radioligand, with unbound radioligand producing no signal.
HEK-293 cells (Tatsumi et al., Eur. J. Pharmacol. 1997, 30, 249-258) stably expressing recombinant hNET (Clone: HEK-hNET #2) were maintained with media (DMEM hi glucose with 10% FBS, 300 μg/ml G418 and 2 mM L-Glutamine) and incubated at 37° C. with 5% CO2. Cells were released from culture flasks using PBS for 1-2 minutes. […]
(§2) Cell membranes were prepared using a membrane preparation buffer of 50 mM TRIS (pH 7.4). […] After a second centrifugation, the pellet was re-homogenized and brought to a final volume determined during the assay. […]
^3[H] […] The mixtures were allowed to stand at room temperature for one hour, and were then counted on a Packard TopCount LCS, a generic SPA counting protocol settings (Energy Range: Low, Efficiency Mode: Normal, Region A: 1.50-35.00, Region B: 1.50-256.00, Count Time (min.): 0.40, Background Subtract: none, Half-Life Correction: no, Quench Indicator: tSIS, Platemap blank subtraction: No, Cross talk reduction: Off). […]

hSERT transporter = biological target: T3, hSERT transporter (Homo sapiens, UniProt P31645); test: Human serotonin transporter (hSERT) scintillation proximity assay, competition with [3H]-Citalopram; details: membranes of HEK-293 cells expressing recombinant hSERT, Cheng-Prusoff
T3 construct: expressed in transfected cells; membrane preparation
T3 sequence (P31645 whole entry): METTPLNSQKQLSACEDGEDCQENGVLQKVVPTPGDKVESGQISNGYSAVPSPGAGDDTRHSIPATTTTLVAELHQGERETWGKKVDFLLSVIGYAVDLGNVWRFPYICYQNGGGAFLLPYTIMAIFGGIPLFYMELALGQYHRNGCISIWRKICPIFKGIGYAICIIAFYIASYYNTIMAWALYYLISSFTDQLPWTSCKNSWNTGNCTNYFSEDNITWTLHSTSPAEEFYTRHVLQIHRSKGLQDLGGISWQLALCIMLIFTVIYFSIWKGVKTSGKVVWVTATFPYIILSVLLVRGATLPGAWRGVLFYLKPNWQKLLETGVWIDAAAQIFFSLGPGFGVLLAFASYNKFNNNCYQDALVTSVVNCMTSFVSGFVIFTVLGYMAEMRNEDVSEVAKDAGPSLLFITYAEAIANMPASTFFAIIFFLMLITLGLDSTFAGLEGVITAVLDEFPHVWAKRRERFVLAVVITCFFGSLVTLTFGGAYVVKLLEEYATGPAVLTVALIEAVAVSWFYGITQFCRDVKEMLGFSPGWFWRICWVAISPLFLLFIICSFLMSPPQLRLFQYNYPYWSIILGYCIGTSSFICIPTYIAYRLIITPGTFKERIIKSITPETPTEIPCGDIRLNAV
Experimental: The screening assay of this example was used to determine the affinity of ligands at the hSERT transporter by competition with [^3H]-Citalopram.
Scintillation Proximity Assay (SPA) works by bringing radioligand within close proximity to the bead's scintillant to stimulate light emission. In this assay, the receptor-containing membranes were pre-coupled to the SPA beads and the binding of the appropriate radioligand to the transporter was measured. The light emission was proportional to the amount of bound radioligand. Unbound radioligand produced no signal as a result of distant proximity to scintillant (lack of energy transfer). […]
as §2
The % inhibition was calculated for each compound tested [(Compound counts per minute (CPM) at maximum concentration-Non-Specific CPM)/Total CPM*100]. […]
as §1

## c1ccc2c(c1)CNCCC2c1ccc2[nH]ccc2c1 (stereo not drawn) [5-(1H-Indol-5-yl)-2,3,4,5-tetrahydro-1H-benzo[c]azepine]
[1]
  pKi: ~8.70
hNET transporter
  pKi: ~8.00
hSERT transporter
  pKi: ~6.90
